Tests used:
HvUGT13248 = target: T1, HvUGT13248 (Hordeum vulgare subsp. vulgare, UniProt M0Y4P1); test: biochemical; conditions: read-out: Glucosylation rate of DON, percentage of the control
T1 sequence (M0Y4P1 1-475): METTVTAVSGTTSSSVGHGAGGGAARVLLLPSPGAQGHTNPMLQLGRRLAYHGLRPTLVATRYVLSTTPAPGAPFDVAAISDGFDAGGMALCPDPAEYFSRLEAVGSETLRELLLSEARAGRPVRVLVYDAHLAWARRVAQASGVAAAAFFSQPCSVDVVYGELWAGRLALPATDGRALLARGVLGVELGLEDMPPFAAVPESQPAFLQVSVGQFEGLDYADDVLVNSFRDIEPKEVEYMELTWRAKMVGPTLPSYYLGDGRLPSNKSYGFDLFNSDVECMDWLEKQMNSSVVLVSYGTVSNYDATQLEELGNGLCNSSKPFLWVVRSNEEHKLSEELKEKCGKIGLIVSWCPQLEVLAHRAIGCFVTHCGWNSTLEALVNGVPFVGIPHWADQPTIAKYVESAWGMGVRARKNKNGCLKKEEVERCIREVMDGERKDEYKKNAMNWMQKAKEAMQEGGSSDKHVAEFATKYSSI

[1] = tested on: wheat cultivar Apogee seedlings; set-up: species or system Triticum aestivum; conditions: in vivo
Heliothis zea larvae = tested on: Heliothis zea larvae; set-up: method as in Dowd et al., 1989; conditions: ref Dowd et al., 1989; cited from earlier work
OsUGT79 Q202A = target: T2, OsUGT79 Q202A (Oryza sativa subsp. japonica, UniProt Q7XT97, Q202A); type: biochemical
T2 sequence (Q7XT97 1-466 Q202A): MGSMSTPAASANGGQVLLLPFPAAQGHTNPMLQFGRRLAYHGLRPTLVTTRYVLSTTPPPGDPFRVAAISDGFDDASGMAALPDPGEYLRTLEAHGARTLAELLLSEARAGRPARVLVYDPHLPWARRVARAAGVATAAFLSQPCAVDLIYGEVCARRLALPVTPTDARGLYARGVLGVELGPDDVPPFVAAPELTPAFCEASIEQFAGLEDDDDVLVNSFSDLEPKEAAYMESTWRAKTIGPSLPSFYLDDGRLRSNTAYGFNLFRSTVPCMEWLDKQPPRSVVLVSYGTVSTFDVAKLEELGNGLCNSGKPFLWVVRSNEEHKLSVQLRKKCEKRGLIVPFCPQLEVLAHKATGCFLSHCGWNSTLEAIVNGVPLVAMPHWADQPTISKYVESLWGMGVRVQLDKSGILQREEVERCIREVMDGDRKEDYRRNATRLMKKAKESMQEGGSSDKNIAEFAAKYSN

piglets = tested on: piglets; set-up: method as in Rotter et al., 1992; conditions: ref Rotter et al., 1992; cited from earlier work
animal cells = tested on: animal cells; set-up: method as in Gruber-Dorninger et al., 2017; conditions: in vitro assays; ref Gruber-Dorninger et al., 2017; cited from earlier work
[2] = tested on: marine and terrestrial (human pathogenic) fungi; set-up: method as in Strongman et al., 1987; conditions: ref Strongman et al., 1987; cited from earlier work

CC1(C)CCC[C@]2(C)[C@@H]3[C@H]1[C@@H](O)[C@@]2(C)C[C@H]3O [CUL, culmorin]
remaining activity at 25 µM (HvUGT13248): 59 ± 6%
remaining activity at 125 µM (HvUGT13248): 13%
Effect of CUL applied together with DON on root length [1]: significantly increased the degree of reduction of root length
Effect on primary and total root length [1]: did not cause a significant change
Effect on growth of Heliothis zea larvae (Heliothis zea larvae): no negative effects
Effect on mortality of Heliothis zea larvae in combination with DON (Heliothis zea larvae): significantly increases mortality
Specific activity (glucoside formation) (OsUGT79 Q202A): 2.23 ± 0.08 nmol/min/mg
Effect on growth of piglets (piglets): no negative effects
Toxicity to animal cells (animal cells): low toxicity
Anti-fungal activity [2]: Weak anti-fungal activity

From article PMC13415951 (Journal of Experimental Botany, 2026)
